In PubChem BioAssay (NCI) one finds TGI data, which are given here for eight compounds.

Test systems include HCT-116 colon; MDA-MB-435; SNB-75 CNS; HCT-15 colon; MDA-MB-231 breast; NCI-H522 lung; COLO 205 colon; SK-MEL-2 melanoma; SK-OV-3 ovarian; NCI-H460 lung; OVCAR-8 ovarian; SN12C renal; SNB-19 CNS; BT-549 breast; NCI-H226 lung; U251 CNS; UO-31 renal.
Common to all, as to test: NCI-60 cell line screen, 48 h

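Five concentrations, 48 hours, 96-well plates. TGI: concentration producing complete growth inhibition.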

In the case of `Cc1csc(-n2c(C)nc3cc(Cl)ccc3c2=O)n1`, the TGI in the assay with HCT-116 colon is greater than 100 µM; with MDA-MB-435, greater than 100 µM; with SNB-75 CNS it was greater than 100 µM; in the assay on HCT-15 colon, greater than 100 µM; in the assay with MDA-MB-231 breast it was greater than 100 µM; in the assay on NCI-H522 lung, 60.6 µM. Further, the TGI in the assay on COLO 205 colon, in the assay on SK-MEL-2 melanoma, in the assay on SK-OV-3 ovarian, with NCI-H460 lung, with OVCAR-8 ovarian and in the assay on SN12C renal was greater than 100 µM in each case. Moreover, the TGI in the assay with SNB-19 CNS, with BT-549 breast, in the assay with NCI-H226 lung, in the assay on U251 CNS and in the assay with UO-31 renal was greater than 100 µM in each case.
Regarding `CCCCCCCCCCCCOP(=O)(O)OP(=O)(O)OCC1OC(n2cc(C)c(=O)[nH]c2=O)CC1O` (stereo unspecified), the TGI in the assay on HCT-116 colon, with MDA-MB-435, in the assay on SNB-75 CNS, in the assay with HCT-15 colon, in the assay on MDA-MB-231 breast and with NCI-H522 lung was greater than 100 µM each time. The TGI with COLO 205 colon, with SK-MEL-2 melanoma, with SK-OV-3 ovarian, in the assay on NCI-H460 lung, in the assay with OVCAR-8 ovarian and with SN12C renal was greater than 100 µM each time. Also, the TGI in the assay on SNB-19 CNS, with BT-549 breast, in the assay on NCI-H226 lung, with U251 CNS and with UO-31 renal was greater than 100 µM each time.
With `Cc1ccc(/C=C2/N=C(N/N=C\c3ccccc3)NC2=O)cc1`, the TGI was greater than 100 µM in the assay with HCT-116 colon; 69.7 µM with MDA-MB-435; greater than 100 µM in the assay with SNB-75 CNS; greater than 100 µM in the assay with HCT-15 colon; greater than 100 µM in the assay with MDA-MB-231 breast; greater than 100 µM in the assay on NCI-H522 lung. The TGI in the assay on COLO 205 colon, with SK-MEL-2 melanoma, with SK-OV-3 ovarian, in the assay on NCI-H460 lung, with OVCAR-8 ovarian and in the assay on SN12C renal was greater than 100 µM in each case. The TGI is 90.5 µM in the assay on SNB-19 CNS; greater than 100 µM with BT-549 breast; greater than 100 µM with NCI-H226 lung; 89.6 µM in the assay with U251 CNS; 45.6 µM in the assay on UO-31 renal.
With `Cc1ccc2c(c1C)C(=O)/C(=C/c1cccc(C)c1C(=O)O)C2`, the TGI in the assay with HCT-116 colon, in the assay on MDA-MB-435, in the assay on SNB-75 CNS, with HCT-15 colon, in the assay with MDA-MB-231 breast and with NCI-H522 lung was greater than 100 µM in each case. The TGI in the assay on COLO 205 colon, in the assay with SK-MEL-2 melanoma, in the assay on SK-OV-3 ovarian, in the assay on NCI-H460 lung, in the assay on OVCAR-8 ovarian and in the assay on SN12C renal was greater than 100 µM throughout. In addition, the TGI was greater than 100 µM with SNB-19 CNS; greater than 100 µM with BT-549 breast; greater than 100 µM with NCI-H226 lung; greater than 100 µM with U251 CNS; greater than 43 µM in the assay on UO-31 renal.
On to `O=S(=O)(O)c1cc(S(=O)(=O)O)c2c(N=Nc3ccc(N=Nc4ccccc4)cc3)c(O)ccc2c1`, for which the TGI with HCT-116 colon, in the assay on MDA-MB-435, in the assay on SNB-75 CNS, with HCT-15 colon, in the assay with MDA-MB-231 breast and in the assay with NCI-H522 lung was greater than 100 µM in each case. The TGI in the assay on COLO 205 colon, with SK-MEL-2 melanoma, with SK-OV-3 ovarian, in the assay with NCI-H460 lung, with OVCAR-8 ovarian and with SN12C renal was greater than 100 µM in each case. The TGI in the assay on SNB-19 CNS, in the assay on BT-549 breast, in the assay on NCI-H226 lung, in the assay on U251 CNS and in the assay on UO-31 renal was greater than 100 µM in each case.
On to `CCOC(=O)C1=C(C)N(Cc2ccccc2)C2(O)C=CC(=O)C3=C(O)c4ccccc4C(=O)C312` (stereo unspecified), for which the TGI with HCT-116 colon is 21.8 µM; with MDA-MB-435, 27.5 µM; with SNB-75 CNS it was 55.4 µM; with HCT-15 colon, 22 µM; with MDA-MB-231 breast it was 37.8 µM; in the assay on NCI-H522 lung, 27.2 µM. The TGI is 30.4 µM in the assay with COLO 205 colon; 30.4 µM with SK-MEL-2 melanoma; greater than 100 µM in the assay with SK-OV-3 ovarian; 24.4 µM with NCI-H460 lung; 39 µM with OVCAR-8 ovarian; 32.1 µM in the assay on SN12C renal. Moreover, the TGI in the assay with SNB-19 CNS is 88.7 µM; with BT-549 breast it was 20.2 µM; in the assay on NCI-H226 lung, 54.4 µM; in the assay on U251 CNS, 38.5 µM; with UO-31 renal it was 21.5 µM.
As to `COc1cc(/C=N/NC2=NCCN2)ccc1O`, the TGI with HCT-116 colon, in the assay on MDA-MB-435, in the assay on SNB-75 CNS, in the assay on HCT-15 colon, in the assay with MDA-MB-231 breast and in the assay on NCI-H522 lung was greater than 100 µM in each case. For the same compound, the TGI with COLO 205 colon, in the assay on SK-MEL-2 melanoma, with SK-OV-3 ovarian, in the assay on NCI-H460 lung, in the assay on OVCAR-8 ovarian and in the assay with SN12C renal was greater than 100 µM throughout. Moreover, the TGI in the assay on SNB-19 CNS, with BT-549 breast, in the assay with NCI-H226 lung, in the assay with U251 CNS and in the assay on UO-31 renal was greater than 100 µM in each case.
Regarding `O=P(O)(O)CN1CCNCCN(CP(=O)(O)O)CC1`, the TGI in the assay with HCT-116 colon was greater than 38 µM; in the assay with MDA-MB-435 it was greater than 100 µM; with SNB-75 CNS it was greater than 100 µM; with HCT-15 colon, greater than 100 µM; in the assay on MDA-MB-231 breast, greater than 100 µM; with NCI-H522 lung, greater than 100 µM. The TGI in the assay on COLO 205 colon is 18.7 µM; with SK-MEL-2 melanoma, greater than 100 µM; with SK-OV-3 ovarian, greater than 100 µM; with NCI-H460 lung it was greater than 100 µM; in the assay on OVCAR-8 ovarian it was greater than 51 µM; in the assay with SN12C renal, greater than 100 µM. Further, the TGI with SNB-19 CNS was greater than 100 µM; in the assay on BT-549 breast, greater than 100 µM; in the assay with NCI-H226 lung, greater than 86.8 µM; with U251 CNS it was greater than 100 µM; with UO-31 renal, greater than 100 µM.
